Measurements: ChEMBL document CHEMBL4043116, “KBE009: An antimalarial bestatin-like inhibitor of the Plasmodium falciparum M1 aminopeptidase discovered in an Ugi multicomponent reaction-derived peptidomimetic library” (Bioorg Med Chem, 2017)
Activity calls are given as the source filed them. Unless noted, no cut-off for these calls is given here.

Assays:
[1] = system: Erythrocyte; assay: Hemolytic activity against human erythrocytes at 25 uM measured after 48 hrs; format: ADME, cell-based
[2] = system: Plasmodium falciparum; assay: Inhibition of recombinant Plasmodium falciparum M1 aminopeptidase assessed as residual activity at 20 uM using Ala-AMC as substrate pretreated for 30 mins followed by substrate addition by fluorescence assay relative to control
[3] = system: Plasmodium falciparum; assay: Antimalarial activity against synchronized ring stage of […] Plasmodium falciparum 3D7 infected in human erythrocytes assessed as parasite growth at 25 uM after 48 hrs by Giemsa staining based microscopic analysis; format: functional, cell-based
[4] = system: Plasmodium falciparum; assay: Antimalarial activity against asynchronized chloroquine-resistant Plasmodium falciparum FcB1/Columbia assessed as reduction in [3H]-hypoxanthine incorporation by measuring parasite growth at 5 uM pretreated for 24 hrs followed by [3H]-hypoxanthine addition after 24 hrs by microbeta scintillation counting analysis relative to control; format: functional; parameters: scale not given: the % may be the effect or the level left
[5] = system: Plasmodium falciparum; assay: Antimalarial activity against synchronized ring stage of […] Plasmodium falciparum 3D7 infected in human erythrocytes assessed as parasite growth at 25 uM after 72 hrs by YOYO-1 staining based flow cytometric analysis relative to control; format: functional
[6] = system: Plasmodium falciparum; assay: Antimalarial activity against asynchronized chloroquine-resistant Plasmodium falciparum FcB1/Columbia assessed as reduction in [3H]-hypoxanthine incorporation by measuring parasite growth at 50 uM pretreated for 24 hrs followed by [3H]-hypoxanthine addition after 24 hrs by microbeta scintillation counting analysis relative to control; format: functional; parameters: scale not given: the % may be the effect or the level left
[7] = Selectivity index, ratio of Ki for recombinant Plasmodium falciparum M1 aminopeptidase to Ki for porcine kidney cortex aminopeptidase N
[8] = Inhibition of recombinant Plasmodium falciparum M1 aminopeptidase using Ala-AMC as substrate pretreated for 30 mins followed by substrate addition by fluorescence assay
[9] = system: Plasmodium falciparum; assay: Antimalarial activity against asynchronized chloroquine-resistant Plasmodium falciparum FcB1/Columbia assessed as reduction in [3H]-hypoxanthine incorporation pretreated for 24 hrs followed by [3H]-hypoxanthine addition after 24 hrs by microbeta scintillation counting analysis; format: functional
[10] = target: T1, Aminopeptidase N (Sus scrofa, UniProt P15145); assay: Inhibition of porcine kidney cortex aminopeptidase N using Leu-p-nitroanilide as substrate pretreated for 30 mins followed by substrate addition […]
T1 sequence (P15145 whole entry): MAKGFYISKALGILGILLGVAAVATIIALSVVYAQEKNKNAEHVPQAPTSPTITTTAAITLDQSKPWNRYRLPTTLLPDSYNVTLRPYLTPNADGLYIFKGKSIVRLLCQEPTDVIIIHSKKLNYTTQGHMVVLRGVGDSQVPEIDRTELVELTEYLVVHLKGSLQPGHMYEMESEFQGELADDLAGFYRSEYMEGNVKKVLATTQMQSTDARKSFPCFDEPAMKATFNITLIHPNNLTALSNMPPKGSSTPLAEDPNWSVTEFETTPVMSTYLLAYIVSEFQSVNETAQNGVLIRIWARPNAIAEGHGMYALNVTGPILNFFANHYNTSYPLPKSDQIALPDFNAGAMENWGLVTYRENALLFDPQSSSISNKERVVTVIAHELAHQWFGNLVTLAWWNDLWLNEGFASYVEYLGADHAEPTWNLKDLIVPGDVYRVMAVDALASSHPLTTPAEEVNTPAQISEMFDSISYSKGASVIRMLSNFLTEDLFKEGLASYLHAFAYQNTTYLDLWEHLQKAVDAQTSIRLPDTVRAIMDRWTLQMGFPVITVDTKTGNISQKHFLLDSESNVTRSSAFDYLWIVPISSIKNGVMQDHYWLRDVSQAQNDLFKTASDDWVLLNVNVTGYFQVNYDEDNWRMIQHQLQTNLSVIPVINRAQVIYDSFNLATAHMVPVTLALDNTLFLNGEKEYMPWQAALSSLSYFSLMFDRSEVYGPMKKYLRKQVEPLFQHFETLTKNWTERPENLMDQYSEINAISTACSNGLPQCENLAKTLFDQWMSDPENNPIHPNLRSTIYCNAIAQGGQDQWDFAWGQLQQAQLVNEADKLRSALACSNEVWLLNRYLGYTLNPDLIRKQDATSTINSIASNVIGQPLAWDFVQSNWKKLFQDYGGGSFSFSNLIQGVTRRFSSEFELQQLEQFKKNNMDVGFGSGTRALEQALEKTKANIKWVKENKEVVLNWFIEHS

[11] = system: Plasmodium falciparum; assay: Antimalarial activity against synchronized ring stage of […] Plasmodium falciparum 3D7 infected in human erythrocytes after 48 hrs by Giemsa staining based microscopic analysis; format: functional, cell-based; conditions: for IC50: 3D7, 48 h

| Structure (SMILES) | Activity [1] | Activity [2] | Activity [3] | Activity [4] | Activity [5] | Activity [6] | Ratio Ki [7] | Ki [8] | IC50 [9] | Ki [10] | IC50 [11] | inhibition [11] |
| --- | --- | --- | --- | --- | --- | --- | --- | --- | --- | --- | --- | --- |
| CC(C)C[C@@H](C(=O)O)N(CC(=O)NCc1ccccc1)C(=O)[C@@H](N)Cc1ccccc1 | Non-Toxic | 91% | Active | 91 - 93.5% | 89% | 79 - 100% |  |  |  |  |  |  |
| CC(C)C[C@@H](C(=O)O)N(C(=O)[C@@H](N)Cc1ccccc1)C(C(=O)NC(C)(C)C)c1ccco1 (some centres not stated) | Non-Toxic | 42% | Active | 94.5 - 99% | 96% | 81.5 - 95% |  |  |  |  |  |  |
| O=C(CN1CCC[C@H]1C(=O)O)NC1CCCCC1 | Non-Toxic | 98% | Active |  | 82% |  |  |  |  |  |  |  |
| COc1ccc(C(N[C@@H](CC(C)C)C(=O)O)C(=O)NC2CCCCC2)cc1OC (some centres not stated) | Non-Toxic | 98% | Active |  | 41% |  |  |  |  |  |  |  |
| O=C(CN[C@@H](Cc1c[nH]c2ccccc12)C(=O)O)NC1CCCCC1 | Non-Toxic | 29% | Active | 83 - 92.5% | 43% | 31 - 39.5% | 5.6 | 4.3 µM | 37 µM | 24 µM | 25 µM |  |
| CC(C)C[C@H](N)C(=O)N(CC(=O)NCc1ccccc1)[C@H](C(=O)O)C(C)C | Non-Toxic | 85% | Active | 76.5 - 79% | 65% | 67 - 78% |  |  |  |  |  |  |
| CC[C@H](C)[C@H](NC(C(=O)NC1CCCCC1)c1ccccc1)C(=O)O (some centres not stated) | Non-Toxic | 96% | Active | 84.5 - 92.5% | 77% | 39.5 - 41.5% |  |  |  |  |  |  |
| CC(C)C[C@H](NC(C(=O)NC1CCCCC1)c1cccnc1)C(=O)O (some centres not stated) | Non-Toxic | 94% | Active |  | 96% |  |  |  |  |  |  |  |
| COc1ccc(C(C(=O)NC(C)(C)C)N(C(=O)[C@@H](N)Cc2ccccc2)[C@@H](CC(C)C)C(=O)O)cc1OC (some centres not stated) | Non-Toxic | 48% | Active | 56 - 99% | 95% | 42.5 - 99% |  |  |  |  |  |  |
| O=C(CN[C@@H](Cc1ccccc1)C(=O)O)NCc1ccccc1 | Non-Toxic | 23% | Active |  | 38% |  |  | 0.9 µM |  |  |  | Active |
| CC(C)C[C@H](N)C(=O)N(CC(=O)NC(C)(C)C)[C@@H](Cc1ccccc1)C(=O)O | Non-Toxic | 61% | Active | 92.5 - 99% | 87% | 71 - 83.5% |  |  |  |  |  |  |
| CC[C@H](C)[C@H](NCC(=O)NC1CCCCC1)C(=O)O | Non-Toxic | 100% | Active | 79.5 - 86.5% | 93% | 1.5 - 4.5% |  |  |  |  |  |  |
| CC(C)C[C@H](NCC(=O)NC1CCCCC1)C(=O)O | Non-Toxic | 96% | Active | 97 - 99% | 60% | 69 - 90% |  |  |  |  |  |  |
| O=C(NC1CCCCC1)C(N[C@@H](Cc1ccccc1)C(=O)O)c1ccccc1 (some centres not stated) | Non-Toxic | 24% | Active |  | 42% |  |  | 1.9 µM |  |  | 26 µM |  |
| CC(C)C[C@H](NC(C(=O)NC1CCCCC1)c1ccccc1)C(=O)O (some centres not stated) | Non-Toxic | 40% | Active | 85.5 - 93% | 82% | 15.5 - 23% |  |  |  |  |  |  |
| O=C(NC1CCCCC1)C(c1cccnc1)N1CCC[C@H]1C(=O)O (some centres not stated) | Non-Toxic | 99% | Active |  | 83% |  |  |  |  |  |  |  |
| O=C(NC1CCCCC1)C(c1ccccc1)N1CCC[C@H]1C(=O)O (some centres not stated) | Non-Toxic | 100% | Active |  | 90% |  |  |  |  |  |  |  |
| CC(C)C[C@@H](C(=O)O)N(CC(=O)NC(C)(C)C)C(=O)[C@@H](N)Cc1ccccc1 | Non-Toxic | 97% | Active | 87.5 - 91.5% | 45% | 48.1 - 79.5% |  |  |  |  |  |  |
| CC(C)C[C@@H](C(=O)O)N(C(=O)[C@@H](N)Cc1ccccc1)C(C(=O)NCC(=O)O)c1ccccc1 (some centres not stated) | Non-Toxic | 73% | Active | 97 - 99% | 88% | 89 - 97.5% |  |  |  |  |  |  |
| CC(C)C[C@@H](C(=O)O)N(C(=O)[C@@H](N)Cc1ccccc1)C(C(=O)NC(C)(C)C)c1cccnc1 (some centres not stated) | Non-Toxic | 64% | Active | 16 - 99% | 86% | 1 - 11.5% |  |  |  |  |  |  |
| CC(C)C[C@@H](C(=O)O)N(C(=O)[C@@H](N)Cc1ccccc1)C(C(=O)NCc1ccccc1)c1ccccc1 (some centres not stated) | Non-Toxic | 83% | Active | 65 - 90% | 66% | 39 - 55.5% |  |  |  |  |  |  |
| O=C(CN[C@@H](Cc1ccccc1)C(=O)O)NC1CCCCC1 | Non-Toxic | 48% | Active | 84.5 - 99% | 53% | 21.5 - 56% | 3.4 | 6.1 µM | 29 µM | 21 µM | 37 µM |  |
